Source: ChEMBL document CHEMBL6177960, “Rational design, optimization, and biological evaluation of novel pyrrolo-pyridone derivatives as potent and orally active Cbl-b inhibitors” (Eur J Med Chem, 2025)

Biological target: E3 ubiquitin-protein ligase CBL-B (Homo sapiens, UniProt Q13191)
Assay: Binding affinity to Cbl-b (unknown origin) assessed as inhibition constant incubated for 60 mins by TR-FRET assay

Sequence of E3 ubiquitin-protein ligase CBL-B (Q13191 whole entry): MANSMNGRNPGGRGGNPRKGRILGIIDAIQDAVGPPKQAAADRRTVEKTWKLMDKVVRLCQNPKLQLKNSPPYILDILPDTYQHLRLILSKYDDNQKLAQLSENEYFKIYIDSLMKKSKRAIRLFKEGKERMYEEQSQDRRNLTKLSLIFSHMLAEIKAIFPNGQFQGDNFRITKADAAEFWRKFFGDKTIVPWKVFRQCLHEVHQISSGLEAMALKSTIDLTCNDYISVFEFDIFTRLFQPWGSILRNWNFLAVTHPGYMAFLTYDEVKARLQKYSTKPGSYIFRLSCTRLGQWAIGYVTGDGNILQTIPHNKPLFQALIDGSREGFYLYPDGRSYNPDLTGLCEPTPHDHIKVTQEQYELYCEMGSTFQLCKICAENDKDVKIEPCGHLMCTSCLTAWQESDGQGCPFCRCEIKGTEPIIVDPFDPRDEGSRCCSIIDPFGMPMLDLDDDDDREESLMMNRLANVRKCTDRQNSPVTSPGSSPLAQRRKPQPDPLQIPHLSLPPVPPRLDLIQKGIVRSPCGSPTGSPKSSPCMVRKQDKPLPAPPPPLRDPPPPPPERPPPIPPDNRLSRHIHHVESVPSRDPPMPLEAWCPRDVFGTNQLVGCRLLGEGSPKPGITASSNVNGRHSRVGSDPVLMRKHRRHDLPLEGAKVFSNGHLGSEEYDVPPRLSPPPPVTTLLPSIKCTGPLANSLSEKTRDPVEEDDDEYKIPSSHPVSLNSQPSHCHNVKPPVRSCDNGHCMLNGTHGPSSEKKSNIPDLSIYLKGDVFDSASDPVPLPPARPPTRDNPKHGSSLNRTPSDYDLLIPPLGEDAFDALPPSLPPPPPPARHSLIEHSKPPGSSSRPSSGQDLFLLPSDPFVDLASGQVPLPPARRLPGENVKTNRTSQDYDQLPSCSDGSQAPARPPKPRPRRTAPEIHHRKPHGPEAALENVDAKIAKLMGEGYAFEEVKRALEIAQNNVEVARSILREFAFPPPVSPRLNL

Structure (SMILES): Cn1cnnc1C1(c2cccc(-n3cc(C(F)(F)F)c4cc(CN5CCC[C@@H]6C[C@@H]65)[nH]c4c3=O)c2)CCC1
- Ki: 4.19 nM

Structure (SMILES): Cn1cnnc1C1(c2cccc(-n3cc(C(F)(F)F)c4cc(CN5CC6CC6C5)[nH]c4c3=O)c2)CCC1 (configuration not stated)
- Ki: 2.34 nM

Structure (SMILES): C[C@H]1CCCN(Cc2cc3c(C(F)(F)F)cn(-c4cccc([C@]5(c6nncn6C)C[C@H](OC(F)(F)F)C5)c4)c(=O)c3[nH]2)C1
- Ki: 1.54 nM

Structure (SMILES): CO[C@H]1C[C@](c2cccc(-n3cc(C(F)(F)F)c4cc(CN5CCC[C@H](C)C5)[nH]c4c3=O)c2)(c2nncn2C)C1
- Ki: 1.68 nM

Structure (SMILES): CO[C@H]1C[C@](c2cccc(-n3cc(C(F)(F)F)c4cc(CN5CC6CCC(C6)C5)[nH]c4c3=O)c2)(c2nncn2C)C1
- Ki: 5.43 nM

Structure (SMILES): C[C@H]1CCCN(Cc2cc3c(C(F)(F)F)cn(-c4cccc([C@]5(c6nncn6C)C[C@@H](F)C5)c4)c(=O)c3[nH]2)C1
- Ki: 1.25 nM

Structure (SMILES): Cn1cnnc1C1(c2cccc(-n3cc(C(F)(F)F)c4cc(CN5CCC[C@H]6C[C@H]65)[nH]c4c3=O)c2)CCC1
- Ki: 2 nM

Structure (SMILES): CO[C@H]1C[C@@](c2cccc(-n3cc(C(F)(F)F)c4cc(CN5CCC[C@H](C)C5)[nH]c4c3=O)c2)(c2nncn2C)C1
- Ki: 1.39 nM

Structure (SMILES): Cn1cnnc1C1(c2cccc(-n3cc(C(F)(F)F)c4cc(CN5CCCC6(CC6)C5)[nH]c4c3=O)c2)CCC1
- Ki: 1.82 nM

Structure (SMILES): C[C@H]1CCCN(Cc2cc3c(C(F)(F)F)cn(-c4cccc(C5(c6nncn6C)CCC5)c4)c(=O)c3[nH]2)C1
- Ki: 1.02 nM

Structure (SMILES): C[C@H]1CCCN(Cc2cc3c(C4CC4)cn(-c4cccc([C@@H](c5nncn5C)C5CCC5)c4)c(=O)c3[nH]2)C1
- Ki: 38.2 nM

Structure (SMILES): C[C@H]1CCCN(Cc2cc3c(C(F)(F)F)cn(-c4cccc([C@]5(c6nncn6C)C[C@H](F)C5)c4)c(=O)c3[nH]2)C1
- Ki: 1.41 nM

Structure (SMILES): CO[C@H]1C[C@@](c2cccc(-n3cc(C(F)(F)F)c4cc(CN5CCCC6(CC6)C5)[nH]c4c3=O)c2)(c2nncn2C)C1
- Ki: 2.29 nM

Structure (SMILES): C[C@H]1CCCN(Cc2cc3c(C4CC4)cn(-c4cccc(C5(c6nncn6C)CC6(CC6)C5)c4)c(=O)c3[nH]2)C1
- Ki: 1.58 nM

Structure (SMILES): Cn1cnnc1[C@]1(c2cccc(-n3cc(C(F)(F)F)c4cc(CN5CC6CC6C5)[nH]c4c3=O)c2)C[C@H](C)C1 (some centres not stated)
- Ki: 0.86 nM

Structure (SMILES): C[C@H]1CCCN(Cc2cc3c(C4CC4)cn(-c4cccc([C@H](c5nncn5C)C5CCC5)c4)c(=O)c3[nH]2)C1
- Ki: 1.4 nM

Structure (SMILES): C[C@H]1CCCN(Cc2cc3c(C4CC4)cn(-c4cccc(C5(Cc6nncn6C)COC5)c4)c(=O)c3[nH]2)C1
- Ki: 1.43 nM

Structure (SMILES): CCN(Cc1cc2c(C(F)(F)F)cn(-c3cccc([C@]4(c5nncn5C)C[C@@H](C)C4)c3)c(=O)c2[nH]1)CC(C)C
- Ki: 1.57 nM

Structure (SMILES): Cn1cnnc1[C@]1(c2cccc(-n3cc(C(F)(F)F)c4cc(CNC5(C)CCC5)[nH]c4c3=O)c2)C[C@H](C)C1
- Ki: 0.86 nM

Structure (SMILES): C[C@H]1CCCN(Cc2cc3c(C(F)(F)F)cn(-c4cccc(C5(Cc6nncn6C)COC5)c4)c(=O)c3[nH]2)C1
- Ki: 1.98 nM

Structure (SMILES): CCN(Cc1cc2c(C(F)(F)F)cn(-c3cccc([C@]4(c5nncn5C)C[C@@H](OC)C4)c3)c(=O)c2[nH]1)CC(C)C
- Ki: 3.88 nM

Structure (SMILES): C[C@H]1CCCN(Cc2cc3c(C4CC4)cn(-c4cccc(C5(C(F)c6nncn6C)CC(F)(F)C5)c4)c(=O)c3[nH]2)C1 (some centres not stated)
- Ki: 2.34 nM

Structure (SMILES): C/C=C1\C[C@@](c2cccc(-n3cc(C(F)(F)F)c4cc(CN5CCC[C@H](C)C5)[nH]c4c3=O)c2)(c2nncn2C)C1 (some centres not stated)
- Ki: 2.89 nM

Structure (SMILES): C[C@H]1CCCN(Cc2cc3c(C4CC4)cn(-c4cccc(C5(Cc6nncn6C)CC(F)(F)C5)c4)c(=O)c3[nH]2)C1
- Ki: 1.68 nM

Structure (SMILES): CO[C@H]1C[C@](c2cccc(-n3cc(C(F)(F)F)c4cc(CN5CC6CC6C5)[nH]c4c3=O)c2)(c2nncn2C)C1 (some centres not stated)
- Ki: 5.45 nM

Structure (SMILES): C[C@H]1CCCN(Cc2cc3c(S(C)(=O)=O)cn(-c4cccc(C5(Cc6nncn6C)COC5)c4)c(=O)c3[nH]2)C1
- Ki: 14.2 nM

Structure (SMILES): CCN(Cc1cc2c(C(F)(F)F)cn(-c3cccc(C4(c5nncn5C)CCC4)c3)c(=O)c2[nH]1)CC(C)C
- Ki: 2.87 nM

Structure (SMILES): CO[C@H]1C[C@@](c2cccc(-n3cc(C(F)(F)F)c4cc(CN5CC6CC6C5)[nH]c4c3=O)c2)(c2nncn2C)C1 (some centres not stated)
- Ki: 3.01 nM

Structure (SMILES): CC[C@H]1C[C@](c2cccc(-n3cc(C(F)(F)F)c4cc(CN5CCC[C@H](C)C5)[nH]c4c3=O)c2)(c2nncn2C)C1
- Ki: 1.22 nM

Structure (SMILES): C[C@H]1CCCN(Cc2cc3c(C(F)(F)F)cn(-c4cccc(C5(c6nncn6C)COC5)c4)c(=O)c3[nH]2)C1
- Ki: 5.29 nM

Structure (SMILES): CC[C@H]1C[C@@](c2cccc(-n3cc(C(F)(F)F)c4cc(CN5CCC[C@H](C)C5)[nH]c4c3=O)c2)(c2nncn2C)C1
- Ki: 1.14 nM

Structure (SMILES): C[C@H]1CCCN(Cc2cc3ccn(-c4cccc(C5(Cc6nncn6C)COC5)c4)c(=O)c3[nH]2)C1
- Ki: 18 nM

Structure (SMILES): CO[C@H]1C[C@](c2cccc(-n3cc(C(F)(F)F)c4cc(CN5CCCC6(CC6)C5)[nH]c4c3=O)c2)(c2nncn2C)C1
- Ki: 9.3 nM

Structure (SMILES): Cn1cnnc1C1(c2cccc(-n3cc(C(F)(F)F)c4cc(CNC5(C)CCC5)[nH]c4c3=O)c2)CCC1
- Ki: 1.13 nM

Structure (SMILES): CO[C@H]1C[C@](c2cccc(-n3cc(C(F)(F)F)c4cc(CNC5(C)CCC5)[nH]c4c3=O)c2)(c2nncn2C)C1
- Ki: 2.34 nM

Structure (SMILES): CO[C@H]1C[C@@](c2cccc(-n3cc(C(F)(F)F)c4cc(CN5CC6CCC(C6)C5)[nH]c4c3=O)c2)(c2nncn2C)C1
- Ki: 0.82 nM

Structure (SMILES): CCN(CC)Cc1cc2c(C(F)(F)F)cn(-c3cccc([C@]4(c5nncn5C)C[C@@H](C)C4)c3)c(=O)c2[nH]1
- Ki: 0.97 nM

Structure (SMILES): CCN(CC)Cc1cc2c(C(F)(F)F)cn(-c3cccc(C4(c5nncn5C)CCC4)c3)c(=O)c2[nH]1
- Ki: 2.58 nM

Structure (SMILES): C[C@H]1CCCN(Cc2cc3c(C(F)(F)F)cn(-c4cccc(C5(Cc6nncn6C)CC(F)(F)C5)c4)c(=O)c3[nH]2)C1
- Ki: 0.74 nM

Structure (SMILES): C[C@H]1CCCN(Cc2cc3c(C(F)(F)F)cn(-c4cccc(C5(c6nncn6C)CC6(CC6)C5)c4)c(=O)c3[nH]2)C1
- Ki: 0.8 nM

Structure (SMILES): C[C@H]1CCCN(Cc2cc3c(C(F)(F)F)cn(-c4cccc(-c5ccccc5-c5nncn5C)c4)c(=O)c3[nH]2)C1
- Ki: 7.04 nM

Structure (SMILES): Cn1cnnc1[C@]1(c2cccc(-n3cc(C(F)(F)F)c4cc(CN5CC6CCC(C6)C5)[nH]c4c3=O)c2)C[C@H](C)C1
- Ki: 1.74 nM

Structure (SMILES): C[C@H]1CCCN(Cc2cc3c(C(F)(F)F)cn(-c4cccc([C@@H](c5nncn5C)C5CCC5)c4)c(=O)c3[nH]2)C1
- Ki: 3.67 nM

Structure (SMILES): C[C@H]1CCCN(Cc2cc3c(C(F)(F)F)cn(-c4cccc([C@H](c5nncn5C)C5CCC5)c4)c(=O)c3[nH]2)C1
- Ki: 0.83 nM

Structure (SMILES): C[C@H]1CCCN(Cc2cc3c(Br)cn(-c4cccc(C5(Cc6nncn6C)COC5)c4)c(=O)c3[nH]2)C1
- Ki: 2.79 nM

Structure (SMILES): CO[C@H]1C[C@@](c2cccc(-n3cc(C(F)(F)F)c4cc(CNC5(C)CCC5)[nH]c4c3=O)c2)(c2nncn2C)C1
- Ki: 1.4 nM

Structure (SMILES): C[C@H]1CCCN(Cc2cc3c(C(F)(F)F)cn(-c4cccc([C@]5(c6nncn6C)C[C@@H](OC(F)(F)F)C5)c4)c(=O)c3[nH]2)C1
- Ki: 1.34 nM

Structure (SMILES): Cn1cnnc1[C@]1(c2cccc(-n3cc(C(F)(F)F)c4cc(CN5CCCC6(CC6)C5)[nH]c4c3=O)c2)C[C@H](C)C1
- Ki: 1.32 nM

Structure (SMILES): Cn1cnnc1[C@]1(c2cccc(-n3cc(C(F)(F)F)c4cc(CN5CCC[C@H]6C[C@H]65)[nH]c4c3=O)c2)C[C@H](C)C1
- Ki: 1.16 nM

Structure (SMILES): Cc1cn(-c2cccc(C3(Cc4nncn4C)COC3)c2)c(=O)c2[nH]c(CN3CCC[C@H](C)C3)cc12
- Ki: 2.36 nM

Structure (SMILES): Cn1cnnc1[C@]1(c2cccc(-n3cc(C(F)(F)F)c4cc(CN5CCC[C@@H]6C[C@@H]65)[nH]c4c3=O)c2)C[C@H](C)C1
- Ki: 1.81 nM

Structure (SMILES): C[C@H]1CCCN(Cc2cc3c(C(F)(F)F)cn(-c4cccc(C5(c6nncn6C)CC(F)(F)C5)c4)c(=O)c3[nH]2)C1
- Ki: 1.18 nM
